Test system: Saccharomyces cerevisiae ABC16-Green Monster
Assay: growth inhibition at single dose (up to 150 µM), below the 70% cut-off for dose-response; higher = more potent
Conditions: 18 h; 30 °C; YPD
Outline: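 Percent growth inhibition is the reported value. Drug-sensitive S. cerevisiae ABC16-Green Monster cultures in log phase (OD600 0.1–0.2), 200 µl per well in 96-well plates, received each library compound once at 150 µM in biological duplicates, with untreated cultures run alongside. Growth was followed by OD600 at 0 h and after 18 h at 30 °C. Dose-response was not done for compounds below 70% in both replicates.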

Row | SMILES | growth inhibition at single dose
1 | CCN(CC)CCNc1ccnc2cc3ccccc3cc12 | < 70%
2 | CCOC(=O)c1cn(CC)c2cc(N3CCCCC3)c(F)cc2c1=O | < 70%
3 | c1nc(NCc2ccc(CN3CCOCC3)cc2)c2sccc2n1 | < 70%
4 | O=C(NC1CC1)c1ccc(CN(C2CC2)S(=O)(=O)c2ccccc2F)cc1 | < 70%
5 | COc1ccc(O)c(C(=O)c2cc(Cl)c3nc4ccccc4c(=O)n3c2)c1 | < 70%
6 | O=C(Nc1cccc2ccccc12)N1CCN(c2ncccc2C(F)(F)F)CC1 | < 70%
7 | Cc1cc(N2CCN(CCO)CC2)n2ncc(-c3ccc(F)cc3)c2n1 | < 70%
8 | CCN(CC)c1cc(C)c2cc(NC(=O)c3cccc(OC)c3)ccc2n1 | < 70%
9 | Cc1nnc(NCc2cccc(Cl)c2)c2ccccc12 | < 70%
10 | CCc1ccc(Nc2cc(C)nc3nc(C)nn23)cc1 | < 70%
11 | Clc1ccc(-n2cc(COc3ccnc4ccccc34)nn2)cc1 | < 70%
12 | COc1cccc(NC(=O)Cn2c(C)c(C#N)c3ccccc32)c1 | < 70%
13 | Oc1c(CN2CCN(c3ccccc3F)CC2)cc(Br)c2cccnc12 | < 70%
14 | O=c1nc(C=Cc2ccc(Br)cc2)oc2ccccc12 | < 70%
15 | CCOc1ccc2nc(C)cc(Nc3ccc(Br)cc3)c2c1 | < 70%
16 | O=C(c1[nH]nc2c1CCCC2)N1CCN(Cc2ccc3c(c2)OCO3)CC1 | < 70%
17 | COC(=O)c1cc(OC)c(OC)cc1NS(=O)(=O)c1ccc(OC)cc1 | < 70%
18 | CC(C)(CN)c1nc(-c2ccc(Cl)c(O)c2)c(-c2ccnc(N)n2)[nH]1 | < 70%
19 | O=c1nc(CCc2ccc3c(c2)OCCO3)[nH]c2ccccc12 | < 70%
20 | CC(C)(C)OC(=O)N1CCN(c2cc(-c3ccc(Oc4ccccc4)cc3)n[nH]2)CC1 | < 70%
21 | Cc1cc(Nc2cccc(C(F)(F)F)c2)n2ncc(C#N)c2n1 | < 70%
22 | CCc1sc(C(=O)Nc2cnc3ccccc3c2)cc1C | < 70%
23 | CCOc1ccc(-c2nc(C(=O)Nc3ncccc3O)cs2)cc1 | < 70%
24 | CN1CCN(c2cc(-c3ccc(F)cc3)nc(-c3ccncc3)n2)CC1 | < 70%

Row | SMILES | growth inhibition at single dose
25 | CC(NC(C)c1ccc(Cl)cc1)C(=O)Nc1sccc1C(N)=O (configuration not stated) | < 70%
26 | N#Cc1ccc(Cc2cnc(NC(=O)c3ccc4ncsc4c3)s2)cc1 | < 70%
27 | N#CCNC(=O)c1ccc(-c2ccnc(Nc3ccc(N4CCOCC4)cc3)n2)cc1 [Momelotinib] | < 70%
28 | COc1ccc2nc(C)cc(OCC(=O)Nc3ccccc3OC)c2c1 | < 70%
29 | Cn1cc(/C=C/C(=O)Nc2ncc(Cc3ccccc3)s2)cn1 | < 70%
30 | COc1cccc(OCC(=O)c2ccc(Br)cc2)c1 | < 70%
31 | CCOC(=O)C1(Cc2ccccc2)CCN(Cc2cccc(OC)c2O)CC1 | < 70%
32 | Cc1cc(C(=O)COC(=O)c2[nH]nc3ccccc23)c(C)n1CC1CCCO1 (configuration not stated) | < 70%
33 | COc1ccc(-c2csc(N/C=C3/C(=O)NC(=O)c4ccccc43)n2)cc1OC | < 70%
34 | O=C(Nc1ccc(Cl)cc1)Nc1nnc(CSCc2ccc(Cl)cc2)s1 | < 70%
35 | Cc1cc(C)c2cc(C(=O)NC3CCCCCCC3)[nH]c2c1 | < 70%
36 | COc1ccc(C(O)(CCC(C)C)C(CN2CCOCC2)c2ccc(Cl)cc2)cc1 (configuration not stated) | < 70%
37 | CCN(CC)CCNc1ncnc2c1[nH]c1ccc(Br)cc12 | < 70%
38 | COc1ccc2nccc(NC(=O)C3CCN(CCc4ccc(Cl)cc4)CC3)c2n1 | < 70%
39 | CCOc1ccc(Nc2ccnc3cc(Cl)ccc23)cc1 | < 70%
40 | O=C(CSc1ccc2nnc(-c3cccc(F)c3)n2n1)Nc1ccc2c(c1)OCO2 | < 70%
41 | CN(C)CCNC(=O)N1CCCN(c2ncnc3cc(-c4ccccc4)sc23)CC1 | < 70%
42 | Cc1sc2ncnc(Sc3nc4ccccc4[nH]3)c2c1C | < 70%
43 | Cc1ccc(-c2cc3c(SCC(=O)Nc4cc(C(F)(F)F)ccc4Cl)nccn3n2)cc1 | < 70%
44 | c1ccc(Oc2ccc(-c3cc(CN4CCOCC4)[nH]n3)cc2)cc1 | < 70%
45 | CCN(CC)CCNc1ncnc2c1[nH]c1ccc(Cl)cc12 | < 70%
46 | O=C(Nc1cc(Cl)cc(Cl)c1)c1cc(Br)ccc1O | < 70%
47 | Cc1sc(NC(=O)c2ccco2)c(C(c2cccnc2)N2CCC(Cc3ccccc3)CC2)c1C (configuration not stated) | < 70%
48 | CCOc1cccc(C(=O)Nc2ccc(-c3nc4ccccc4[nH]3)cc2)c1 | < 70%

Row | SMILES | growth inhibition at single dose
49 | COc1ccc2nc(C)cc(Nc3ccccc3O)c2c1 | < 70%
50 | COc1ccc(C2c3ccc4ccccc4c3Oc3ncn(CCCn4ccnc4)c(=N)c32)cc1OC (configuration not stated) | < 70%
51 | CCCCCCc1cc(O)c2c3c(c(=O)oc2c1)CCC(C)C3 (configuration not stated) | < 70%
52 | C/N=c1\scc(-c2ccc(OC(F)F)cc2)n1/N=C/c1cccs1 | < 70%
53 | O=C(C1CCN(c2nnnn2-c2ccccc2)CC1)N1CCc2ccccc2C1 | < 70%
54 | Cc1ccc2[nH]c(C3CCCNC3)c(-c3ccncc3)c2c1 (configuration not stated) | < 70%
55 | Cc1ccc(S(=O)(=O)Nc2cccc3ncccc23)s1 | < 70%
56 | Nc1cccnc1Nc1ccc(Cl)cc1 | < 70%
57 | N#Cc1ccc(NC(=O)Nc2ccc(C#N)cc2)cc1 | < 70%
58 | COc1ccccc1CNC(=O)CCn1c(=O)[nH]c2ccccc2c1=O | < 70%
59 | O=C1c2ccccc2-c2nnc(-c3ccc(Br)cc3)cc21 | < 70%
60 | O=C(Nc1ncccc1O)c1ccc(S(=O)(=O)NCCc2cccs2)cc1 | < 70%
61 | CCCCNc1nc(NC(C)(C)C)nc(NC(C)(C)C)n1 | < 70%
62 | Cc1cc([N+](=O)[O-])cc(S(=O)(=O)N(Cc2ccc(C(=O)NC3CC3)cc2)C2CC2)c1C | < 70%
63 | COc1ccc(-c2cncc3ccc(C(=O)NCCCn4ccnc4)nc23)cc1 | < 70%
64 | COc1ccc(-c2cnc3ccc(NCc4ccc(S(N)(=O)=O)cc4)nn23)cn1 | < 70%
65 | COc1ccc(-n2nc(C)c3c2NC(=O)CC3c2ccc3c(c2)OCO3)cc1 (configuration not stated) | < 70%
66 | CCOC(=O)c1sc(N)c(C#N)c1COC(=O)c1c(CC)noc1C | < 70%
67 | N=C(N)Nc1ccc(-c2ccc(-c3ccc(N=C(N)N)c(Cl)c3)o2)cc1Cl | < 70%
68 | CCCCCCc1cc2cc(-c3csc(C=Cc4ccccc4)n3)c(=O)oc2cc1O | < 70%
69 | COc1ccc2c(c1)OC(O)(C(F)(F)C(F)(F)F)CC2=O (configuration not stated) | < 70%
70 | COc1cccc(-c2nc3c(N4CCCC4)cccc3n2CC2CCCN2)n1 (configuration not stated) | < 70%
71 | Cn1c(=O)c2c(S(C)(=O)=O)snc2n(C)c1=O | < 70%
72 | CCOc1c(Br)cc(C2C(C(=O)OC)=CN(C)C=C2C(=O)OC)cc1OC | < 70%

From the supplement of paper PMC8837787
